Source: PubChem BioAssay (NCI)
“And” between values parts separate entries of the source, which are not always exact repeats. Equal values may be shown once.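 Five compound concentrations were applied to cells in 96-well plates for 48 hours; endpoints were derived by simple linear interpolation of the resulting dose-response curve. Abbreviation: GI50, concentration required for 50% inhibition of growth. TGI is the concentration that stops growth completely.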

Tests used:
SN12K1 renal = assay: NCI tumour cell line growth inhibition, 48 h
P388 leukemia = assay: NCI tumour cell line growth inhibition, 48 h

Structure (SMILES) | GI50 (SN12K1 renal) | TGI (SN12K1 renal) | GI50 (P388 leukemia) | TGI (P388 leukemia)
CNCCN=c1ccc2c3c1c(O)c1c(O)ccc(=O)c1c3[nH]n2CCNCCO | 50 nM | 2540 nM and 598 nM | < 17.2 nM and 84.5 nM | 44.8 nM and 246 nM
O=NN(CCCl)C(=O)NC1CCC(CC2CCC(NC(=O)N(CCCl)N=O)CC2)CC1 (stereo not given) | – | 34200 nM | – | –
